Measurements reported in patent publication US8105798B2, “Cytoplasmic activity of retinoid X receptor and its regulation by ligands and dimerization” (The Burnham Institute, priority 2003, dated 2012).

What was measured:
RXRα LBD protein = target: T1, RXRα LBD protein (Homo sapiens, UniProt P19793); test: sensitivity of RXRα protein to chymotrypsin digestion; type: biochemical; settings: 100 μM sulindac sulfide
T1 construct: made in house; host or cells: E. coli BL21 (pET vector, Novagen)
T1 sequence (P19793 224-462): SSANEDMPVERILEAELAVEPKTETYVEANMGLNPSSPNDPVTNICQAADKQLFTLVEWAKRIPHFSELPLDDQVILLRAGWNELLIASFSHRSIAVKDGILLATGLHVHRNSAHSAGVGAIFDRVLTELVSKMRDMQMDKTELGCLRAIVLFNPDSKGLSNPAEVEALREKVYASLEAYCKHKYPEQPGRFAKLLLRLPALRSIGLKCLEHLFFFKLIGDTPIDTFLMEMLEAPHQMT
Method: (FIG. 12b). LBD protein was incubated in the absence (DMSO) or presence of sulindac sulfide (100.micro.M) and then subjected to digestion by chymotrypsin for 30 min. Briefly, SEQ ID No.: 11 was cloned into the pET vector system available from Novagen and the recombinant vector was transformed into and expressed in BL21 cells. Digested reactions were separated by SDS-PAGE and visualized by Commassie blue staining. 35^S RXR protein was incubated for 30 minutes at room temperature in the presence or absence of 100.micro.M sulindac sulfide. Chymotrypsin was then added to a series of labeled protein reactions at final concentrations of 0, 37.5, 75, 150 and 300.micro.g per ml, and digestion proceeded for 20 minutes.

[1] = test system: H460, MGC80-3 and LNCaP cells; test: cytochrome c release by immunostaining; type: cell-based; settings: 75 μM, 6 hr
Method: To uncover the consequence of RXRα mitochondrial localization induced by sulindac sulfide, H460, MGC80-3 and LnCap cells were treated with or without sulindac sulfide and RXRα mitochondrial and cytochrome c release were determined by immunostaining, as described above. Cells were treated with or without sulindac sulfide (75.micro.M) for 6 hr. Cells were then stained with RXRα, Hsp6, and cytochrome c (cyt c).

RARβ expression = test: RARβ protein expression by Western analysis in cancer cells; type: cell-based; settings: sulindac sulfide 100 μM, 24 hr
Method: The indicated cancer cells were treated for 24 h with or without trans-RA (10^-6 M), or 15d-PGJ2 (5.micro.M) or their combination. RARβ protein expression was determined by Western analysis.
The effect of sulindac sulfide on RXR transactivation was investigated for its effect of RARβ induction by all-trans-retinoic acid (tRA), which activates the RA response element (βRARE) in the RARβ promoter through an RAR/RXR heterodimer. […] The βRARE could be also activated by an RXR/PPAR heterodimer. […] Cells were treated for 24 hr with or without with trans-RA (10^-6 M), or SR11237 (10^-6 M), ciglitazone (10.micro.M), sulindac sulfide (100.micro.M) or the indicated combinations. RARβ protein expression was determined by Western analysis.

RXRα/IKK interaction = target: T2, RXRα/IKK interaction (Homo sapiens, UniProt P19793); test: co-immunoprecipitation assay of RXRα with IKK; type: cell-based; settings: 6 hr
T2 construct: expressed in transfected cells; host or cells: HEK293T, pcDNA3 expression vectors
T2 sequence (Q9Y6K9 whole entry partner, one chain of several): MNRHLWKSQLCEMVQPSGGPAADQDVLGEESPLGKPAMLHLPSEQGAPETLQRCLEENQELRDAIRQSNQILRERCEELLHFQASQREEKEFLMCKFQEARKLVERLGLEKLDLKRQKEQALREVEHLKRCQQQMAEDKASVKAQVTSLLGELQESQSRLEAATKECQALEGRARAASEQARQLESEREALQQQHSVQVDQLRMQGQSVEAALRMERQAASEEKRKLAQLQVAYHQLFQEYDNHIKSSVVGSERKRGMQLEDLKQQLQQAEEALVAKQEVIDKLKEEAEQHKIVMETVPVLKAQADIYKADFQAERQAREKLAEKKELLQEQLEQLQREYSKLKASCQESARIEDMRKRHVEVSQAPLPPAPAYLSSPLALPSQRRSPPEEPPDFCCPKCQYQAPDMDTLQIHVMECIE
T2 sequence (O14920 whole entry partner, one chain of several): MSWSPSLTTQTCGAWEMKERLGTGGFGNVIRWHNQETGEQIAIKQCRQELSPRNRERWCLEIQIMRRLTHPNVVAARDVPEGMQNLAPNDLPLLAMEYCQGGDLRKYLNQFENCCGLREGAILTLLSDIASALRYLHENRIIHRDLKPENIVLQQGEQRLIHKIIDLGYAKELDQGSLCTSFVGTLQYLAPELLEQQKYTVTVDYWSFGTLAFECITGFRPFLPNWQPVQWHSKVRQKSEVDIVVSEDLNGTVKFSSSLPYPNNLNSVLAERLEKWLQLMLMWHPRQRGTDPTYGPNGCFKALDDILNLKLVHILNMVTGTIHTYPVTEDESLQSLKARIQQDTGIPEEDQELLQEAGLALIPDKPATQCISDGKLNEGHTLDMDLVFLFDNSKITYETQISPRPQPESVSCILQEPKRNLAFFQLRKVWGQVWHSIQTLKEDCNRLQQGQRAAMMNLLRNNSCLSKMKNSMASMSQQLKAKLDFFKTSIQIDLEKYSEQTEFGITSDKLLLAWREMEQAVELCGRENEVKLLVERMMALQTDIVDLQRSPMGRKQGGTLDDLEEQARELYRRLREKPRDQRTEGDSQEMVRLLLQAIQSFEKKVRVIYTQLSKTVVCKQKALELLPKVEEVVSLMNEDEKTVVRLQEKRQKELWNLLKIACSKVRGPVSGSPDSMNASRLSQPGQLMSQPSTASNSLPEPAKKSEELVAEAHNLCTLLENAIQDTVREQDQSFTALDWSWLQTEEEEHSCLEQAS
Source text: IKK is composed of three subunits: IKKα and IKKβ, the catalytic subunits, and IKKγ, a regulatory subunit. IKK activation is required for NF-kB activation through its phosphorylation and degradation of IkB in response to proinflammatory stimuli. In addition, IKK also regulates cellular processes in a NF-kB-independent manner. We examined whether sulindac sulfide-induced cytoplasmic RXRα could interact with IKK. The indicated expression vector (pcDNA3 from Invitrogen, Corp) was transfected into HEK293T cells alone or together. After transfection, cells were treated with sulindac sulfide (75.micro.M) for 6 hr, and the interaction of RXRα and IKKβ was analyzed by co-immunoprecipitation assay. […] (FIG. 17a). The interaction was also illustrated by their cytoplasmic co-localization in cells treated with sulindac sulfide. (FIG. 17b). […] In this example, H460 cells were treated with or without sulindac sulfide (75.micro.M) for 6 hr, and cells were stained for RXRα and IKKβ (FIG. 17c). […] HA-IKKγ and Flag-RXRα expression vectors were transfected into HEK293T cells alone or together. After transfection, cells were treated with a new retinoid (BI419 (10^-6 M), 15d-PGJ2 (5.micro.M), or sulindac sulfide (75.micro.M) for 6 hr. The interaction of RXRα and IKKγ was studied by co-immunoprecipitation assay.

RXR.alpha = target: T3, RXR.alpha (Homo sapiens, UniProt P19793); test: isothermal titration calorimetry (ITC); type: binding; settings: data not shown
T3 sequence (P19793 1-462): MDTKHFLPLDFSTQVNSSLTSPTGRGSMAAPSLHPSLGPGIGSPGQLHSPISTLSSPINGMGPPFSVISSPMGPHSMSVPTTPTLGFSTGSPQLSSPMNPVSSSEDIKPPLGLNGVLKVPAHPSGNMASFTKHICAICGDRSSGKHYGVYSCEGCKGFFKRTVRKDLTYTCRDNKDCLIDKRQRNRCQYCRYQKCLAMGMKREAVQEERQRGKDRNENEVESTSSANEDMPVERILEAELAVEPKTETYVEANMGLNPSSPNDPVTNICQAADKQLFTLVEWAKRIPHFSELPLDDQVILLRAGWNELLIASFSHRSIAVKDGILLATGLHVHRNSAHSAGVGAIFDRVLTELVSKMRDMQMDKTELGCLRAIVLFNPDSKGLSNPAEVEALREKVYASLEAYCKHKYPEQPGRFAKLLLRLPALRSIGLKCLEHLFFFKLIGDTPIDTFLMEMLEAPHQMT
Method: ITC is a thermodynamic technique for monitoring the binding reaction of two components. When a protein binds a ligand, heat is either generated or absorbed, and quantitation of this heat allows very accurate determination of the binding dissociation constant (kD), reaction stoichiometry (n), enthalpy and entropy. Heat effects a small as 0.2.micro.cal can be measured and titrations can be done on as little as 1 ml of a dilute solution. (See generally, Pierce, M. M., Raman, C. S., and Nall, B. T., Methods, (1999) 19: 213-21)

In the case of CSc1ccc(/C=C2/C(C)=C(CC(=O)O)c3cc(F)ccc32)cc1 [sulindac sulfide], the “sensitivity of RXRα protein to chymotrypsin” value (RXRα LBD protein) is reported as “modulation of sensitivity of RXRα protein to chymotrypsin”, the cytochrome c release [1] is reported as “massively released” and the “inducing effect of tRA on RARβ” value (RARβ expression; ZR-75-1 and Calu-6 cells, trans-RA 10^-6 M) is reported as “effectively suppressed”. For the same compound, the “activation of RXR/PPAR heterodimer by SR11237 and ciglitazone (RARβ expression)” value (RARβ expression; SR11237 10^-6 M, ciglitazone 10 μM) was “effectively inhibited”, the “interaction of RXRα with IKKγ” value (RXRα/IKK interaction; HEK293T cells, HA-IKKγ and Flag-RXRα, BI419 10^-6 M, 15d-PGJ2 5 μM, sulindac sulfide 75 μM) was “further promoted” and the “interaction between RXRα and IKKβ” value (RXRα/IKK interaction; transfected HEK293T cells, 75 μM) was “extensive interaction”. For the same compound, the “binding to RXR.alpha by ITC” value (RXR.alpha) was “confirmed the binding”.
